The record followed here is patent US9273033B2, “Substituted pyridone derivatives as PDE10 inhibitors” (Merck Sharp & Dohme Corp., priority 2012, dated 2016).

pKi: −log10 of the molar value.

Sequence of human PDE10A2 (Q9Y233 267-1055): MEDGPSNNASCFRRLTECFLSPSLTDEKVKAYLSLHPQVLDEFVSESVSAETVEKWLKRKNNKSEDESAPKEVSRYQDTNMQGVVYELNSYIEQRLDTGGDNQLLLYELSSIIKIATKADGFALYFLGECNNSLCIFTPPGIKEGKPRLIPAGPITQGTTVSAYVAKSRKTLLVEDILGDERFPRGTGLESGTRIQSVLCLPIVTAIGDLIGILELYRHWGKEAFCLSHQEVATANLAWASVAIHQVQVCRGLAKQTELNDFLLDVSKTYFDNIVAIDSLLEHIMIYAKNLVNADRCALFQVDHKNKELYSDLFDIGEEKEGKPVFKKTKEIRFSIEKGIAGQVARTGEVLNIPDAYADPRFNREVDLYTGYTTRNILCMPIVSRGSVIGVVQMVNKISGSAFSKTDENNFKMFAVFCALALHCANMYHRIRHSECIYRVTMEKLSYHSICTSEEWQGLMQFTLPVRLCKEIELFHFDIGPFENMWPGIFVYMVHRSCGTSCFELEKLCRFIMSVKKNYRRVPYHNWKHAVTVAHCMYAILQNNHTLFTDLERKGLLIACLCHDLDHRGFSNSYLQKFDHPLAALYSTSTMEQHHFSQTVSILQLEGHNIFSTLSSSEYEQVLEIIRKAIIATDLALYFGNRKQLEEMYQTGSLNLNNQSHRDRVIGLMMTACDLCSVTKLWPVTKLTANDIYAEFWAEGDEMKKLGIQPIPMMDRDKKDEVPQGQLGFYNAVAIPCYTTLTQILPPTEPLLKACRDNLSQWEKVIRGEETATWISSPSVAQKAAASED

The target of this assay is human PDE10A2 (Homo sapiens (Human), UniProt Q9Y233). As to the kind of experiment: PDE10 fluorescence polarization (IMAP FP) inhibition assay. It counts as biochemical. As to conditions: human PDE10A2, FAM-labeled cAMP substrate, read-out: PDE10A Ki. On the procedure:
The activity of the compounds in accordance with the present invention as PDE10 inhibitors may be readily determined without undue experimentation using a fluorescence polarization (FP) methodology that is well known in the art (Huang, W., et al., J. Biomol Screen, 2002, 7: 215).
In a typical experiment the PDE10 inhibitory activity of the compounds of the present invention was determined in accordance with the following experimental method. PDE10A2 was amplified from human fetal brain cDNA (Clontech, Mountain View, Calif.) using a forward primer corresponding to nucleotides 56-77 of human PDE10A2 (Accession No. AF127480, Genbank Identifier 4894716), containing a Kozak consensus sequence, and a reverse primer corresponding to nucleotides 2406-2413 of human PDE10A2 (Accession No. AF127480, Genbank Identifier 4894716). Amplification with Easy-A polymerase (Stratagene, La Jolla, Calif.) was 95° C. for 2 minutes followed by thirty three cycles of 95° C. for 40 seconds, 55° C. for 30 seconds, and 72° C. for 2 minutes 48 seconds. Final extension was 72° C. for 7 minutes. The PCR product was TA cloned into pcDNA3.2-TOPO (Invitrogen, Carlsbad, Calif.) according to standard protocol. AD293 cells with 70-80% confluency were transiently transfected with human PDE10A2/pcDNA3.2-TOPO using Lipofectamine 2000 according to manufacturer specifications (Invitrogen, Carlsbad, Calif.). Cells were harvested 48 hours post-transfection and lysed by sonication (setting 3, 10×5 sec pulses) in a buffer containing 20 mM HEPES, 1 mM EDTA and protease inhibitor cocktail (Roche). Lysate was collected by centrifugation at 75,000×g for 20 minutes. Supernatant containing the cytoplasmic fraction was used for evaluation of PDE10A2 activity. The fluorescence polarization assay for cyclic nucleotide phosphodiesterases was performed using an IMAP® FP kit supplied by Molecular Devices, Sunnyvale, Calif. (product # R8139). IMAPU technology has been applied previously to phosphodiesterase assays (Huang, W., et al., J. Biomol Screen, 2002, 7: 215). Assays were performed at room temperature in 384-well microtiter plates with an incubation volume of 20.2 μL. Solutions of test compounds were prepared in DMSO and serially diluted with DMSO to yield 8 μL of each of 10 solutions differing by 3-fold in concentration, at 32 serial dilutions per plate. 100% inhibition is determined using a known PDE10 inhibitor, which can be any compound that is present at 5,000 times its Ki value in the assay described as follows, such as papaverine (see Siuciak, et al. Neuropharmacology (2006) 51:386-396; Becker, et al. Behav Brain Res (2008) 186(2):155-60; Threlfell, et al., J Pharmacol Exp Ther (2009) 328(3):785-795), 2-{4-[pyridin-4-yl-1-(2,2,2-trifluoroethyl)-1H-pyrazol-3-yl]phenoxymethyl}quinoline succinic acid or 2-[4-(1-methyl-4-pyridin-4-yl-1H-pyrazol-3-yl)-phenoxymethyl]quinoline succinic acid (see Schmidt, et al. J Pharmacol Exp Ther (2008) 325:681-690; Threlfell, et al., J Pharmacol Exp Ther (2009) 328(3): 785-795). 0% of inhibition is determined by using DMSO (1% final concentrations).
A Labcyte Echo 555 (Labcyte, Sunnyvale, Calif.) is used to dispense 200 nL from each well of the titration plate to the 384 well assay plate. A solution of enzyme (1/1600 dilution from aliquots; sufficient to produce 20% substrate conversion) and a separate solution of FAM-labeled cAMP PDE from Molecular Devices (product # R7506), at a final concentration of 50 nM are made in the assay buffer (10 mM Tris HCl, pH 7.2, 10 mM MgCl2, 0.05% NaN3 0.01% Tween-20, and 1 mM DTT). The enzyme and the substrate are then added to the assay plates in two consecutive additions of 10 μL, and then shaken to mix. The reaction is allowed to proceed at room temperature for 30 minutes. A binding solution is then made from the kit components, comprised of 80% Solution A, 20% Solution B and binding reagent at a volume of 1/600 the total binding solution.
On the technique in general: Polarisation of emitted light reports the rotation of a fluorescent probe.
A word on the pKi: it is the Ki on a negative log10 scale, so that one unit is a factor of ten. For the compound `COc1cc(-c2cnc(C)nc2OC[C@H]2C[C@@H]2c2ccc(C)cn2)cn(C)c1=O` [Example 57, 3-methoxy-1-methyl-5-(2-methyl-4-(((1S,2S)-2-(5-methylpyridin-2-yl)cyclopropyl)methoxy)pyrimidin-5-yl)pyridin-2(1H)-one], the negative-log Ki (pKi) is 9.46. To `COc1ccc([C@H]2C[C@@H]2COc2nc(C)ncc2-c2ccc(=O)n(CC3CC3)c2)nc1` [Example 53, 1-(cyclopropylmethyl)-5-(4-(((1S,2S)-2-(5-methoxypyridin-2-yl)cyclopropyl)methoxy)-2-methylpyrimidin-5-yl)pyridin-2(1H)-one] belongs 9.42; to `Cc1ccc([C@H]2C[C@@H]2COc2nc(C)ncc2-c2ccn(CC(F)F)c(=O)c2)nc1` [Example 106, 1-(2,2-difluoroethyl)-4-(2-methyl-4-(((1S,2S)-2-(5-methylpyridin-2-yl)cyclopropyl)methoxy)pyrimidin-5-yl)pyridin-2(1H)-one], 8.74. To `COc1ccc([C@H]2C[C@@H]2COc2nc(C)ncc2-c2ccn(C(F)F)c(=O)c2)nc1` [Example 117, 1-(difluoromethyl)-4-(4-(((1S,2S)-2-(5-methoxypyridin-2-yl)cyclopropyl)methoxy)-2-methylpyrimidin-5-yl)pyridin-2(1H)-one] belongs 8.71; to `COC(=O)Cn1ccc(-c2cnc(C)nc2OC[C@H]2C[C@@H]2c2ccc(C)cn2)cc1=O` [Example 129, methyl 2-(4-(2-methyl-4-(((1S,2S)-2-(5-methylpyridin-2-yl)cyclopropyl)methoxy)pyrimidin-5-yl)-2-oxopyridin-1(2H)-yl)acetate], 9.40; to `Cc1ccc([C@H]2C[C@@H]2COc2nc(C)ncc2-c2ccc(=O)n(CC(F)F)c2)nc1` [Example 43, 1-(2,2-difluoroethyl)-5-(2-methyl-4-(((1S,2S)-2-(5-methylpyridin-2-yl)cyclopropyl)methoxy)pyrimidin-5-yl)pyridin-2(1H)-one], 8.59. To `COc1ccc([C@H]2C[C@@H]2COc2nc(C)ncc2-c2ccn(C)c(=O)c2)nc1` [Example 128, 4-(4-(((1S,2S)-2-(5-methoxypyridin-2-yl)cyclopropyl)methoxy)-2-methylpyrimidin-5-yl)-1-methylpyridin-2(1H)-one] belongs 8.81; to `COCCn1ccc(-c2cnc(C)nc2OC[C@H]2C[C@@H]2c2ccc(C)cn2)cc1=O` [Example 85, 1-(2-methoxyethyl)-4-(2-methyl-4-(((1S,2S)-2-(5-methylpyridin-2-yl)cyclopropyl)methoxy)pyrimidin-5-yl)pyridin-2(1H)-one], 9.36; to `COc1ccc([C@H]2C[C@@H]2COc2nc(C)ncc2-c2cc(=O)n(C)cc2C2CC2)nc1` [Example 132, 5-cyclopropyl-4-(4-(((1S,2S)-2-(5-methoxypyridin-2-yl)cyclopropyl)methoxy)-2-methylpyrimidin-5-yl)-1-methylpyridin-2(1H)-one], 9.23. `Cc1ncc(-c2cc(=O)n(C)cc2C)c(OC[C@H]2C[C@@H]2c2ccc3c(n2)CCC3)n1` [Example 131, 4-(4-(((1S,2S)-2-(6,7-dihydro-5H-cyclopenta[b]pyridin-2-yl)cyclopropyl)methoxy)-2-methylpyrimidin-5-yl)-l,5-dimethylpyridin-2(1H)-one]: the pKi was 10.48. To `COc1ccc([C@H]2C[C@@H]2COc2nc(C)ncc2-c2cnn(C)c(=O)c2Cl)nc1` [Example 137, 4-chloro-5-(4-(((1S,2S)-2-(5-methoxypyridin-2-yl)cyclopropyl)methoxy)-2-methylpyrimidin-5-yl)-2-methylpyridazin-3(2H)-one] belongs 9.14; to `CCn1ccc(-c2cnc(C)nc2OC[C@H]2C[C@@H]2c2ccc(C)cn2)cc1=O` [Example 69, 1-ethyl-4-(2-methyl-4-(((1S,2S)-2-(5-methylpyridin-2-yl)cyclopropyl)methoxy)pyrimidin-5-yl)pyridin-2(1H)-one], 8.84; to `COc1ccc([C@H]2C[C@@H]2COc2nc(C)ncc2-c2ccn(CCC#N)c(=O)c2)nc1` [Example 112, 3-(4-(4-(((1S,2S)-2-(5-methoxypyridin-2-yl)cyclopropyl)methoxy)-2-methylpyrimidin-5-yl)-2-oxopyridin-1(2H)-yl)propanenitrile], 9.03. As for `Cc1ccc([C@H]2C[C@@H]2COc2nc(C)ncc2-c2ccc(=O)n(C(C)C)c2)nc1` [Example 13, 1-isopropyl-5-(2-methyl-4-(((1S,2S)-2-(5-methylpyridin-2-yl)cyclopropyl)methoxy)pyrimidin-5-yl)pyridin-2(1H)-one], the figure is 9.08; as for `Cc1ncc(-c2ccn(C)c(=O)c2)c(OC[C@H]2C[C@@H]2c2ccccn2)n1` [Example 80, 1-methyl-4-(2-methyl-4-(((1S,2S)-2-(pyridin-2-yl)cyclopropyl)methoxy)pyrimidin-5-yl)pyridin-2(1H)-one], 7.97; as for `COc1ccc([C@H]2C[C@@H]2COc2nc(C)ncc2-c2nn(C)c(=O)cc2C)nc1` [Example 67, 6-(4-(((1S,2S)-2-(5-methoxypyridin-2-yl)cyclopropyl)methoxy)-2-methylpyrimidin-5-yl)-2,5-dimethylpyridazin-3(2H)-one], 8.26. As to `Cc1ccc([C@H]2C[C@@H]2COc2nc(C)ncc2-c2cc(C)n(C)c(=O)c2)nc1` [Example 86, 1,6-dimethyl-4-(2-methyl-4-(((1S,2S)-2-(5-methylpyridin-2-yl)cyclopropyl)methoxy)pyrimidin-5-yl)pyridin-2(1H)-one], the pKi was 8.81. As for `CCn1ccc(-c2cnc(C)nc2OC[C@H]2C[C@@H]2c2ccc3ccccc3n2)cc1=O` [Example 96, 1-ethyl-4-(2-methyl-4-(((lS,2S)-2-(quinolin-2-yl)cyclopropyl)methoxy)pyrimidin-5-yl)pyridin-2(1H)-one], the figure is 10.68. Turning to `Cc1ccc([C@H]2C[C@@H]2COc2nc(C)ncc2-c2ccc(=O)n(CC3CC3)c2)nc1` [Example 49, 1-(cyclopropylmethyl)-5-(2-methyl-4-(((1S,2S)-2-(5-methylpyridin-2-yl)cyclopropyl)methoxy)pyrimidin-5-yl)pyridin-2(1H)-one], the pKi was 9.01. `COCCn1ccc(-c2cnc(C)nc2OC[C@H]2C[C@@H]2c2ccc(OC)cn2)cc1=O` [Example 118, 1-(2-methoxyethyl)-4-(4-(((1S,2S)-2-(5-methoxypyridin-2-yl)cyclopropyl)methoxy)-2-methylpyrimidin-5-yl)pyridin-2(1H)-one]: the pKi was 9.26. To `COc1ccc([C@H]2C[C@@H]2COc2nc(C)ncc2-c2cc(C)c(=O)n(C)c2)nc1` [Example 38, 5-(4-(((1S,2S)-2-(5-methoxypyridin-2-yl)cyclopropyl)methoxy)-2-methylpyrimidin-5-yl)-1,3-dimethylpyridin-2(1H)-one] belongs 9.14; to `COn1cc(-c2cnc(C)nc2OC[C@H]2C[C@@H]2c2ccc3ccccc3n2)ccc1=O` [Example 12, 1-methoxy-5-(2-methyl-4-(((1S,2S)-2-(quinolin-2-yl)cyclopropyl)methoxy)pyrimidin-5-yl)pyridin-2(1H)-one], 10.28.
